Measured values published in patent publication EP4628074A1, “N-PALMITOYLETHANOLAMIDE FOR USE IN COMBINATION WITH A NON-STEROIDAL ANTI-INFLAMMATORY DRUG IN THE TREATMENT OF INFLAMMATORY PAIN” (priority 2024, dated 2025).

Experiments:
[1] = system: inflammatory pain induced by CFA; test: Paw pressure test, CFA-induced inflammatory pain, chronic (14 days) oral treatment (Experiment 4); assay type: in vivo, male Sprague-Dawley rats; details: 2x2 ANOVA on percentage inhibition of mechanical hyperalgesia, PEA-OXA 5 mg/kg + diclofenac 3 mg/kg compared with diclofenac 3 mg/kg and PEA-OXA 10 mg/kg alone, interaction line = synergy
Description: The inflammatory pain model was induced by injecting Complete Freund's Adjuvant (CFA, Sigma-Aldrich) into the tibiotarsal joint of male Sprague-Dawley rats (Charles River), housed in 26x41 cm cages at the Animal Husbandry Centre. Laboratory Animals (Ce.S.A.L.) of the University of Florence with a 12-hour circadian cycle, water and food (standard diet) "ad libitum", temperature of 23±1°C. Intra-articular injection occurred according to the method described by Butler et al. (Pain 48:73-81,1992) after light anesthesia with 2% isoflurane. The skin surrounding the injection site was sterilized with 75% ethyl alcohol. […]
The tested molecules - used both individually and in combination - were suspended in 1% CMC and administered orally daily from day 1 to day 14 (chronic treatment). […] Inflammatory pain induced by CFA injection was measured by paw pressure test. […] The nociceptive threshold has been expressed as the force to which the animal reacts by retracting its paw or vocalizing (Leighton et al., Br J Pharmacol 93:553-560,1988). An analgesimeter (Ugo Basile, Varese) was used for this purpose, which allows the mechanical hyperalgesia to be quantified. […]
The effect on pain was analyzed using Generalized Linear Model (GLM) followed by post-hoc analysis based on Tukey-Kramer correction for multiple comparisons. The results of the analyses were expressed as mean ± standard error of the mean (SEM). […]

[2] = system: collagen-induced arthritis; test: Arthritis severity score in collagen-induced arthritis (CIA) (Experiment 2); assay type: in vivo, Female Lewis rats; details: for effect on arthritis score: day 31 up to end of study (day 35), oral from day 25, PEA 30 mg/kg, low-dose IBU 5 mg/kg, high-dose IBU 30 mg/kg
Description: (§1) Rheumatoid arthritis is a disease characterized by inflammatory pain, in which the involved joints present swelling, stiffness and often erosive processes. Female Lewis rats were maintained on a 12/12 hour light/dark cycle, at constant temperature and humidity and acclimated for 1 week, with free access to water and standard diet. […] Arthritis score, change in paw volume (mL), and change in body weight (g) were measured as indicators of inflammatory pain. Arthritis severity was measured every other day starting on day 25, using the following score: 0 = no sign of arthritis; 1 = swelling and/or redness of the paw or toe; 2 = two joints involved; 3 = more than two joints involved; and 4 = severe arthritis of the entire paw and toes. The arthritis index for each subject was calculated by adding the four scores of the individual paws. The change in paw volume compared to day 21 was assessed every two days by plethysmometry (Ugo Basile) starting from day 25. The change in weight was measured for each animal on day 21 and then every two days starting from day 25.
(§2) The chosen inflammatory pain indicators were analyzed via Generalized Linear Model (GLM) followed by post-hoc analysis based on Tukey-Kramer correction for multiple comparisons. […] All analyzes were performed using SAS software, version 9.4 (SAS Institute, Cary, NC, USA). P value < 0.05 was considered significant.

[3] = system: collagen-induced arthritis; test: Body weight change in collagen-induced arthritis (CIA) (Experiment 2); assay type: in vivo, Female Lewis rats; details: from the 4th day of treatment (day 29) for the entire observation period, PEA 30 mg/kg, low-dose ibuprofen 5 mg/kg, high-dose IBU 30 mg/kg
Description: as §1, §2

[4] = system: inflammatory pain induced by sub-plantar injection of carrageenan; test: Von Frey filaments, inflammatory pain induced by sub-plantar injection of carrageenan (Experiment 3); assay type: in vivo, adult male Sprague-Dawley rats
Description: The experimental inflammatory pain model was induced through a sub-plantar injection of carrageenan (CAR) saline solution (0.1 mL of a 1% suspension of CAR in 0.85% saline). […] The PEA used in this experiment was in unprocessed (native) form. Von Frey filaments were used to evaluate pain, recording for each animal the mechanical tolerance threshold, i.e. the pressure (expressed in grams) endured before retracting the paw. The measurement took place using an analgesimeter (Ugo Basile, Comerio, Varese, Italy) and was conducted before the sub-plantar injection of the CAR and at the time of maximum damage (5 hours later).
The effect on pain was analyzed using Generalized Linear Model (GLM) followed by post-hoc analysis based on Tukey-Kramer correction for multiple comparisons. […] All analyses were performed using SAS software, version 9.4 (SAS Institute, Cary, NC, USA). P value < 0.05 was considered significant.

[5] = system: CFA-induced inflammatory pain; test: Paw pressure test, CFA-induced inflammatory pain, single (acute) oral administration (Experiment 1); assay type: in vivo, male Sprague-Dawley rats; details: for p with respect to the CFA group (pain tolerance threshold): single per os administration on day 7, GLMM with Tukey-Kramer
From the text: In the in vivo experimentation, male Sprague-Dawley rats (200-250 g) (Envigo, Varese, Italy) fed "ad libitum" and housed in cages with a controlled sleep/wake cycle were used.
Before the start of the study, the animals were subjected to a 1-week acclimatization period at the Center for Laboratory Animal Sheltering (Ce.S.A.L.) of the University of Florence, following all experimental procedures and protocols compliant with the principles of care and welfare of laboratory animals approved by the Italian Ministry of Health (Italian Legislative Decree 2014/26), European directives (EU Directive 2010/63) and the ARRIVE guidelines.
In order to cause inflammatory pain, Complete Freund's Adjuvant (CFA) was injected at a rate of 50 µL into the joint cavity of the left leg between the tibiofibular and tarsal bones after light anesthesia with 2% isoflurane. The control group was subjected to the same procedure, injecting an equal volume of saline solution (vehicle).
The animals were divided into 9 groups of 6 rats each and treated acutely per os with a single administration, starting from the seventh day after the induction of joint damage. • Group 1: healthy rats subjected to intra-articular injection of saline (vehicle group) • Group 2: rats injected with CFA and treated with 1% CMC, corresponding to the vehicle in which the compounds for the treatments of the following groups were suspended (CFA group); • Group 3: rats injected with CFA and treated with micronized PEA 10 mg/kg; • Group 4: rats injected with CFA and treated with diclofenac 30 mg/kg; • Group 5: rats injected with CFA and treated with diclofenac 3 mg/kg; • Group 6: rats injected with CFA and treated with diclofenac 3 mg/kg + micronized PEA 10 mg/kg; • Group 7: rats injected with CFA and treated with meloxicam 30 mg/kg; • Group 8: rats injected with CFA and treated with meloxicam 3 mg/kg; • Group 9: rats injected with CFA and treated with meloxicam 3 mg/kg + micronized PEA 10 mg/kg.
All animals were subjected to the paw pressure test at the level of the ipsilateral paw, performed before (T0) or after 15, 30, 45 and 60 minutes after the single administration of the treatment (T15, T30, T45 and T60, respectively). In particular, the nociceptive threshold was calculated with an analgesiometer (Ugo Basile, Varese, Italy) by applying an increasing pressure at constant speed (32 g/s) by means of a non-pointed conical support on the dorsal surface of the ipsilateral paw with respect to the injection of CFA (or vehicle). The nociceptive threshold was expressed as the force (in decagrams, dag) to which the animal reacts by retracting the paw or vocalizing (Leighton GE et al. kappa-Opioid agonists produce antinociception after i.v. and i.c.v. but not intrathecal administration in the rat. Br J Pharmacol. 1988; 93: 553-60).
The values emerged from the paw pressure test in the different treatment groups were compared with each other using the Generalized Linear Mixed Model (GLMM) followed by post-hoc analysis based on Tukey-Kramer correction for multiple comparisons, referring to the single treatment group, considering all the times.
The AUC was analyzed by a two-way factor analysis of variance (2x2 ANOVA), after plotting the mean values, according to the procedure shown by Slinker BK. The statistics of synergism. J Mol Cell Cardiol. 1998 Apr;30(4):723-31. The values were expressed as mean ± standard error mean (SEM). All the statistical analyses were carried out using the software SAS, version 9.4 (SAS Institute, Cary, NC, USA). The value p < 0.05 was considered significant.

CCCCCCCCCCCCCCCC1=NCCO1 [PEA-OXA, 2-pentadecyl-2-oxazoline]
Pr > F [1]: <0,0001

CC(C)Cc1ccc(C(C)C(=O)O)cc1 (centres unmarked) [ibuprofen]
p versus vehicle (arthritis score) ([2]; day 31, after six days of oral treatment, PEA+IBU = PEA 30 mg/kg + ibuprofen 5 mg/kg, IBUhd = ibuprofen 30 mg/kg): < 0.0001 | arthritis score ([2]; day 31, after six days of oral treatment, PEA+IBU = micronized PEA 30 mg/kg + ibuprofen 5 mg/kg, IBUhd = ibuprofen 30 mg/kg, mean ± SEM, vehicle 13.2 ± 0.48): 8.7 ± 0.49 | effect on arthritis score [2]: effective in reducing the arthritis score | effect on arthritis score ([2]; listed as Low-dose IBUs): had no effect | effect on weight reduction induced by arthritis pain ([3]; listed as high-dose IBU): significantly counteracted | effect on weight reduction induced by arthritis pain ([3]; listed as low-dose ibuprofen): neither PEA nor low-dose ibuprofen exerted any effect | Pr > F ([4]; 2x2 factorial analysis on tolerance threshold (Von Frey), native PEA 100 mg/kg, ibuprofen 5 mg/kg, PEA*Ibu = interaction (synergy)): 0,0111 | analgesic activity (tolerance threshold) ([4]; ibuprofen 30 mg/kg, single oral administration): shown to be active | mechanical tolerance threshold compared to the vehicle-treated group ([4]; single oral administration 30 minutes before carrageenan, measured 5 hours later, unprocessed (native) PEA 100 mg/kg and/or ibuprofen 5 mg/kg): equally inactive dose

Cc1cnc(NC(=O)C2=C(O)c3ccccc3S(=O)(=O)N2C)s1 [meloxicam, Meloxicam]
Pr > F ([5]; ANOVA 2x2 on AUC of paw pressure test (Figure 4), PEA 10 mg/kg, meloxicam 3 mg/kg, line PEA*Mel 3 = interaction (synergy)): <0.0001 | p with respect to the CFA group (pain tolerance threshold) ([5]; CFA-injected rats, NSAID 30 mg/kg): 0.0001 | p with respect to the CFA group (pain tolerance threshold) ([5]; CFA-injected rats, micronized PEA 10 mg/kg and/or NSAID 3 mg/kg): 0.1405 | pain tolerance threshold with respect to the CFA group ([5]; CFA-injected rats, single per os administration on day 7 after CFA, micronized PEA 10 mg/kg and/or NSAID 3 mg/kg, T0-T60 min, all times considered): no significant effect
